Assays:
[1] = tested on: caterpillars of the diamond-back moth (Plutella maculipennis); test: whole plant or invertebrate; type: in vivo; conditions: in Brassica oleracea, 168 h, read-out: destruction of caterpillars
Procedure: (§1) Solvent: 7 parts by weight of dimethylformamide
(§2) Emulsifier: 1 part by weight of alkylaryl polyglycol ether
(§3) To produce a suitable preparation of active compound, 1 part by weight of active compound is mixed with the stated amount of solvent and the stated amount of emulsifier, and the concentrate is diluted with water to the desired concentration.
Cabbage leaves (Brassica oleracea) are treated by being dipped into the preparation of active compound of the desired concentration and are infested with caterpillars of the diamond-back moth (Plutella maculipennis) while the leaves are still moist.
After the specified periods of time, the destruction in % is determined. 100% means that all the caterpillars have been killed; 0% means that none of the caterpillars have been killed.

[2] = tested on: larvae of the green rice cicada (Nephotettix cincticeps); test: whole plant or invertebrate; type: in vivo; conditions: 144 h, read-out: destruction of cicadas
Procedure: as §1, §2, §3
Rice seedlings (Oryza satira) are treated by being dipped into the preparation of active compound of the desired concentration and are infested with larvae of the green rice cicada (Nephotettix cincticeps) while the seedlings are still moist.
After the specified period of time, the destruction in % is determined. 100% means that all the cicadas have been killed; 0% means that none of the cicadas have been killed.

[3] = tested on: Digitaria; test: Pre-emergence test, Digitaria; type: in vivo; conditions: 504 h, after three weeks, 0%=no action, 100%=total destruction, read-out: % Activity (damage to the plants)
Procedure: (§4) Solvent: 5 parts by weight of acetone
as §2
(§5) To produce a suitable preparation of active compound, 1 part by weight of active compound is mixed with the stated amount of solvent, the stated amount of emulsifier is added and the concentrate is diluted with water to the desired concentration.
(§6) Seeds of the test plants are sown in normal soil and, after 24 hours, watered with the preparation of the active compound. It is expedient to keep constant the amount of water per unit area. The concentration of the active compound in the preparation is of no importance, only the amount of active compound applied per unit area being decisive. After three weeks, the degree of damage to the plants is rated in % damage in comparison to the development of the untreated control. The figures denote:
(§7) 0%=no action (like untreated control)
(§8) In this test, the following results were obtained at an exemplary application rate of 500 g/ha, the active compounds being tolerated well to very well by soya beans: […]

[4] = tested on: Echinochloa; test: Pre-emergence test, Echinochloa; type: in vivo; conditions: 504 h, after three weeks, 0%=no action, 100%=total destruction, read-out: % Activity (damage to the plants)
Procedure: as §4, §2, §5, §6, §7, §8

[5] = tested on: Panicum; test: Pre-emergence test, Panicum; type: in vivo; conditions: 504 h, after three weeks, 0%=no action, 100%=total destruction, read-out: % Activity (damage to the plants)
Procedure: as §4, §2, §5, §6, §7, §8

[6] = tested on: Setaria; test: Pre-emergence test, Setaria; type: in vivo; conditions: 504 h, after three weeks, 0%=no action, 100%=total destruction, read-out: % Activity (damage to the plants)
Procedure: as §4, §2, §5, §6, §7, §8

[7] = tested on: Trichinella spiralis; test: Trichinella spiralis in vitro; conditions: 120 h, 5 days at 19° C., read-out: destruction (very good action)
Procedure: Trichinella spiralis in vitro
Trichina larvae are isolated from the muscles of mice and washed with 0.9% NaCl supplemented with 20 μg/ml sisomycin and 2 μg/ml of clotrimazole. The actual incubation for approximately 20 trichinas per measurement was effected in 2 ml of a solution consisting of 10 g Bacto Casitone, 5 g of yeast (yeast extract), 2.5 g of glucose, 0.4 g of KH2 PO4, 0.4 g of K2 HPO4 per 500 ml, pH 7.2, containing 10 μg/ml of sisomycin and […] of clotrimazole. 10 mg of the substance to be tested are dissolved in 0.5 ml of DMSO, and such an amount is added to the incubation medium that the end concentrations are 100, 10 and 1 μg/ml. After incubation for 5 days at 19° C., the test is evaluated. The following key is used for the evaluation: 0=no action, the number of live larvae and worms is lower than in the case of the control; 2=good action, dead trichinas can be found; 3=very good action, all trichinas are dead.

[8] = tested on: mustard beetle larvae (Phaedon cochleariae); test: Phaedon larvae test; type: in vivo; conditions: 168 h, after 7 days, active compound concentration 0.1%, cabbage leaves dipped, read-out: destruction of beetle larvae
Procedure: as §1, §2, §3
After the specified periods of time, the destruction in % is determined. 100% means that all the beetle larvae have been killed; 0% means that none of the beetle larvae have been killed.

[9] = tested on: common spider mite or greenhouse red spider mite (Tetranychus urticae); test: Tetranychus test (OP resistant); type: in vivo; conditions: 168 h, after 7 days, active compound concentration 0.01%, OP resistant, bean plants dipped, read-out: destruction of spider mites
Procedure: Tetranychus test (OP resistant)
as §1, §2, §3
Bean plants (Phaseolus vulgaris) which are heavily infested with all development stages of the common spider mite or greenhouse red spider mite (Tetranychus urticae) are treated by being dipped into the preparation of active compound of the desired concentration.
After the specified period of time, the destruction in % is determined. 100% means that all the spider mites have been killed; 0% means that none of the spider mites have been killed.

Row | Structure (SMILES) | mortality at 0.1 % [1] [%] | mortality at 0.1 % [2] [%] | activity at 500 g/ha [3] [%] | activity at 500 g/ha [4] [%] | activity at 500 g/ha [5] [%] | activity at 500 g/ha [6] [%] | killing at 100 ppm [7] [%] | mortality at 0.1 % [8] [%] | mortality at 0.01 % [9] [%]
1 | Cc1cc(C)c(-c2c(O)cc(-c3ccc(F)cc3)oc2=O)c(C)c1 [Example 52] | 100 | 100 | 90 to 100 | 70 to 100 | 95 to 100 | 70 to 100 | – | – | –
2 | Cc1cc(C)c(-c2c(O)cc(-c3ccc(Cl)cc3)oc2=O)c(C)c1 [Example 53] | 100 | – | 90 to 100 | 70 to 100 | 95 to 100 | 70 to 100 | – | – | –
3 | Cc1cc(C)c(-c2c(O)cc(-c3ccco3)oc2=O)c(C)c1 [Example 56] | – | 100 | – | 70 to 100 | 95 to 100 | 70 to 100 | 100 | – | –
4 | Cc1cc(C)c(-c2c(O)cc(-c3cccs3)oc2=O)c(C)c1 [Example 58] | – | 100 | – | – | – | – | – | – | –
5 | Cc1cc(C)c(-c2c(O)cc(-c3cc(Cl)c(Cl)s3)oc2=O)c(C)c1 [Example 60] | – | – | 90 to 100 | – | 95 to 100 | 70 to 100 | – | – | –
6 | Cc1cc(C)c(-c2c(O)cc(-c3ccc(Cl)s3)oc2=O)c(C)c1 [Example 61] | 100 | – | – | – | – | – | – | – | –
7 | Cc1cc(C)c(-c2c(O)cc(-c3cc(C)sc3C)oc2=O)c(C)c1 [Example 62] | – | 100 | 90 to 100 | – | 95 to 100 | – | – | – | –
8 | Cc1cc(C)c(-c2c(O)cc(-c3cccnc3)oc2=O)c(C)c1 [Example 63] | – | – | 90 to 100 | 70 to 100 | 95 to 100 | 70 to 100 | – | – | –
9 | Cc1cc(C)c(-c2c(O)cc(-c3c(C)cc(C)nc3C)oc2=O)c(C)c1 [Example 65] | – | 100 | – | – | – | – | – | 100 | –
10 | Cc1cc(C)c(-c2c(O)c3c(oc2=O)CCCC3)c(C)c1 [Example 68] | – | 100 | 90 to 100 | 70 to 100 | 95 to 100 | 70 to 100 | – | – | –
11 | Cc1cc(C)c(-c2c(O)c3c(oc2=O)CCC3)c(C)c1 [Example 69] | – | 100 | 90 to 100 | 70 to 100 | 95 to 100 | 70 to 100 | – | – | –
12 | Cc1cc(C)c(-c2c(O)c3c(oc2=O)CCOC3)c(C)c1 [Example 71] | – | 100 | – | – | – | – | – | – | –
13 | CC(=O)Oc1c(C)c(C)oc(=O)c1-c1c(C)cc(C)cc1C [Example 81] | 100 | – | 90 to 100 | 70 to 100 | 95 to 100 | 70 to 100 | – | – | –
14 | CC(=O)Oc1cc(C(C)(C)C)oc(=O)c1-c1c(C)cc(C)cc1C [Example 84] | – | 100 | 90 to 100 | 70 to 100 | 95 to 100 | 70 to 100 | – | – | 100
15 | Cc1cc(C)c(-c2c(OC(=O)C(C)C)cc(C(C)(C)C)oc2=O)c(C)c1 [Example 85] | – | 100 | – | – | – | – | – | – | 100
16 | CCOC(=O)Oc1c(C)c(C)oc(=O)c1-c1c(C)cc(C)cc1C [Example 88] | 100 | – | 90 to 100 | – | 95 to 100 | 70 to 100 | – | – | 100

From US5393729A, “3-aryl-pyrone derivatives” (Bayer Aktiengesellschaft, priority 1992, dated 1995)
